From article PMC3291806 (2011)

Target: gamma-aminobutyric acid type A (GABAA) receptor α1(L264T)β2γ2L (Homo sapiens, UniProt P14867+P47870, P14867:L291T)
Test: cell-based

Chain of gamma-aminobutyric acid type A (GABAA) receptor α1(L264T)β2γ2L (P14867 28-456 L291T): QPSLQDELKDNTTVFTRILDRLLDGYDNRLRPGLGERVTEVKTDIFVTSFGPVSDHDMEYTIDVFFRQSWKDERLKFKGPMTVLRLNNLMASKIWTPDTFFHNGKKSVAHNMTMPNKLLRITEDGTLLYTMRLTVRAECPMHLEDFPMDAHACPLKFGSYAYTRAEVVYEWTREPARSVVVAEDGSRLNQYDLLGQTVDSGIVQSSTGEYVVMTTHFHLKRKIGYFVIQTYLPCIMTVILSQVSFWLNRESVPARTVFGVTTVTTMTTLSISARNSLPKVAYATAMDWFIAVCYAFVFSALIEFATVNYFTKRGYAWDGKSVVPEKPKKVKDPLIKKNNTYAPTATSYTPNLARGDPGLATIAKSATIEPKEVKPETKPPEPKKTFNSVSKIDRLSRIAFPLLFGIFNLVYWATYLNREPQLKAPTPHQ
Chain of gamma-aminobutyric acid type A (GABAA) receptor α1(L264T)β2γ2L (P47870 26-512): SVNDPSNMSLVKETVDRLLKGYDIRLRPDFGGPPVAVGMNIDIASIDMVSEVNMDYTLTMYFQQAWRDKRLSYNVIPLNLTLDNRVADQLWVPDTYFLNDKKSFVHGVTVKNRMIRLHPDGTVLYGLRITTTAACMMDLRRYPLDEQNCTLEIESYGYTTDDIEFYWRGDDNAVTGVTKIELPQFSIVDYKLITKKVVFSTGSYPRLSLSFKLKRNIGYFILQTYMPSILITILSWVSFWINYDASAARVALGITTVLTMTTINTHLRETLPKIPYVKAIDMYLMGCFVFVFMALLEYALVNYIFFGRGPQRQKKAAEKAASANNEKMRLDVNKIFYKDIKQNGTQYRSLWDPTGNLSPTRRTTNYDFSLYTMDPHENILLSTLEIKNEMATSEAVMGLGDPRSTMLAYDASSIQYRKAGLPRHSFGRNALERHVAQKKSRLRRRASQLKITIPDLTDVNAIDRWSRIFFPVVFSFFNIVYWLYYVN
Chain of gamma-aminobutyric acid type A (GABAA) receptor α1(L264T)β2γ2L (P18507 40-475 partner): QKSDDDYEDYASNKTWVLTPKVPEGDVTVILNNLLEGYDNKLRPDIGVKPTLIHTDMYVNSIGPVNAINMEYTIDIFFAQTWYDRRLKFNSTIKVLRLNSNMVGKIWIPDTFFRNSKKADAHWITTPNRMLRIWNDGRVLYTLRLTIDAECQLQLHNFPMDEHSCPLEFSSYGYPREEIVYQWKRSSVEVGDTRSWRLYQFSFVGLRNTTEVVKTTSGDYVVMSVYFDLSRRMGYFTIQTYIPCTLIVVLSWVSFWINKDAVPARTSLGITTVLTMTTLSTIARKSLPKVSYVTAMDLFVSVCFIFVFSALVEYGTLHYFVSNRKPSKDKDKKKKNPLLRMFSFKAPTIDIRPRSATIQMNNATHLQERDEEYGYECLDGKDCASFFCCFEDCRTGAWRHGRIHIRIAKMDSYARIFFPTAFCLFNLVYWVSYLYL

Compound `C[C@H](c1ccccc1)n1cncc1C(=O)OCCC(=O)O` [MOC-ECA] has an EC50 of 3.5 ± 0.63 mM.

Compound `COC(=O)CCOC(=O)c1cncn1[C@H](C)c1ccccc1` [MOC-etomidate, methoxycarbonyl etomidate] has an EC50 of 0.01 ± 0.0025 mM.
